Reference: patent US7763602B2, “Pyrrole derivatives as antimycobacterial compounds” (priority 2002, dated 2010)
≈ marks a conversion by molar mass, not a printed value. Where two headings read alike, the source gives them in different places.

Tests used:
[1] = tested on: M. tuberculosis H37Rv ATCC 27294; test: Murine model of pulmonary tuberculosis, treated 14 days post-infection; conditions: Table IV; for Mean Log10 No. of CFU Lung / Mean Log10 No. of CFU Spleen: 5 day/week for 4 week, treated 14 days post-infection; for Mean Log10 no. of reduction Lung / Mean Log10 no. of reduction Spleen: difference from early controls
M. fortuitum = test: In vitro agar dilution assay (MIC), M. fortuitum; format: cell-based, Mycobacterium fortuitum; conditions: Mycolicibacterium fortuitum, read-out: MIC (μg/ml) M. fortuitum (n = 8)
M. kansasii = test: In vitro agar dilution assay (MIC), M. kansasii; format: cell-based; conditions: Mycobacterium kansasii, read-out: MIC (μg/ml) M. kansasii (n = 2)
[2] = mice, oral route; cited from earlier work
[3] = tested on: M. tuberculosis H37Rv ATCC 27294; test: Murine model of pulmonary tuberculosis, treated 01 day post-infection; conditions: for Mean Log10 No. of CFU Lung / Mean Log10 No. of CFU Spleen: 5 day/week for 4 week; for Mean Log10 no. of reduction Lung / Mean Log10 no. of reduction Spleen / Mean Log10 No. of reduction Lung / Mean Log10 No. of reduction Spleen: difference from early controls
[4] = tested on: M. tuberculosis strain 103471; conditions: literature values; cited from earlier work
M. tuberculosis 27294 = test: In vitro agar dilution assay (MIC), reference strain; format: cell-based, Mycobacterium tuberculosis; conditions: Mycobacterium tuberculosis, 27294, Table I, read-out: MIC (μg/ml) against M. tuberculosis-27294
[5] = tested on: M. tuberculosis H37Rv ATCC 27294; test: In vitro growth inhibition assay, BACTEC 460 TB system; format: cell-based, Mycobacterium tuberculosis; parameters: key: +: If ΔGI of test vial is less than that of the control vial the culture was sensitive to the test compound; conditions: final concentration 6.25 μg/ml
[6] = tested on: M. tuberculosis clinical isolates, sensitive; test: microbe, parasite or virus in culture; format: cell-based, Mycobacterium tuberculosis; conditions: Mycobacterium tuberculosis
[7] = Table III, 12.5 mg/kg gavage, treatment from 1 day after infection
[8] = Table III, 25 mg/kg gavage, treatment from 1 day after infection
[9] = Table III, 50 mg/kg gavage, treatment from 1 day after infection
[10] = Table VI, 12.5 mg/kg, treated 01 day post-infection
[11] = Table VI, 25 mg/kg, treated 01 day post-infection
[12] = Table VI, 50 mg/kg, treated 01 day post-infection

SMILES: NNC(=O)c1ccncc1 [Isoniazid, reference compound]
- Mean Log10 No. of CFU Lung ([1]; 12.5 mg/kg): 4.56 ± 0.24
- Mean Log10 No. of CFU Spleen ([1]; 12.5 mg/kg): 4.93 ± 0.42
- Mean Log10 no. of reduction Lung ([1]; 12.5 mg/kg): 1.03
- Mean Log10 no. of reduction Spleen ([1]; 12.5 mg/kg): 1.02
- Mean Log10 No. of CFU Lung ([1]; 25 mg/kg): 3.19 ± 0.6
- Mean Log10 No. of CFU Spleen ([1]; 25 mg/kg): 3.08 ± 0.44
- Mean Log10 no. of reduction Lung ([1]; 25 mg/kg): 2.4
- Mean Log10 no. of reduction Spleen ([1]; 25 mg/kg): 2.87
- Mean Log10 No. of CFU Lung ([1]; 50 mg/kg): 2.97 ± 0.46
- Mean Log10 No. of CFU Spleen ([1]; 50 mg/kg): 2.89 ± 0.27
- Mean Log10 no. of reduction Lung ([1]; 50 mg/kg): 2.62
- Mean Log10 no. of reduction Spleen ([1]; 50 mg/kg): 3.06
- MIC (M. fortuitum): > 16 µg/mL
- MIC (M. kansasii): > 16 µg/mL
- Reported LD50 [2]: 139 mg/kg
- Mean Log10 No. of CFU Lung [3, 7]: 2.93
- Mean Log10 No. of CFU Spleen [3, 7]: 2.91
- Mean Log10 no. of reduction Lung ([3]; Table III, 12.5 mg/kg): 1.55
- Mean Log10 no. of reduction Spleen ([3]; Table III, 12.5 mg/kg): 1.72
- Mean Log10 No. of CFU Lung [3, 8]: 2.16
- Mean Log10 No. of CFU Spleen [3, 8]: 2.21
- Mean Log10 no. of reduction Lung ([3]; Table III, 25 mg/kg): 2.36
- Mean Log10 no. of reduction Spleen ([3]; Table III, 25 mg/kg): 2.27
- Mean Log10 No. of CFU Lung [3, 9]: 1.95
- Mean Log10 No. of CFU Spleen [3, 9]: 2.12
- Mean Log10 no. of reduction Lung ([3]; Table III, 50 mg/kg): 2.53
- Mean Log10 no. of reduction Spleen ([3]; Table III, 50 mg/kg): 2.51
- Mean Log10 No. of CFU Lung [3, 10]: 2.89 ± 0.27
- Mean Log10 No. of CFU Spleen [3, 10]: 2.91 ± 0.42
- Mean Log10 No. of reduction Lung ([3]; Table VI, 12.5 mg/kg): 1.68
- Mean Log10 No. of reduction Spleen ([3]; Table VI, 12.5 mg/kg): 1.78
- Mean Log10 No. of CFU Lung [3, 11]: 2.23 ± 0.33
- Mean Log10 No. of CFU Spleen [3, 11]: 2.21 ± 0.44
- Mean Log10 No. of reduction Lung ([3]; Table VI, 25 mg/kg): 2.34
- Mean Log10 No. of reduction Spleen ([3]; Table VI, 25 mg/kg): 2.48
- Mean Log10 No. of CFU Lung [3, 12]: 2.02 ± 0.31
- Mean Log10 No. of CFU Spleen [3, 12]: 2.07 ± 0.33
- Mean Log10 No. of reduction Lung ([3]; Table VI, 50 mg/kg): 2.55
- Mean Log10 No. of reduction Spleen ([3]; Table VI, 50 mg/kg): 2.62
- MIC value (μg/ml) against the M. tuberculosis strain 103471 [4]: 0.25 µg/mL (≈ 1.82 µM)
- MIC (M. tuberculosis 27294): 0.25 µg/mL (≈ 1.82 µM)
- Growth inhibition of M. tuberculosis 27294 [5]: +
- MIC ([6]; read-out: MIC (μg/ml) M. tuberculosis Sensitive (n = 17)): 0.25 µg/mL (≈ 1.82 µM)
- MIC ([6]; read-out: MIC (μg/ml) against Clinical isolates Sensitive): 0.125 to 0.25 µg/mL (≈ 0.911 to 1.82 µM)
